From PubChem BioAssay AID206 (DTP/NCI, 2004)
Where “and” joins values, the source holds several entries; their conditions need not be identical. Equal entries are not always repeated. Results filed as inconclusive are left out. Starred links: 1 amine or outer side, 2 acyl side, 3 side chain; linkers in the order of their positions; H or OH if unused. Positions of bridges follow the written chain, without caps; N, C: chain ends. Non-standard residues stand in square brackets, D forms with d. Residues, ends and D or L forms follow the SMILES beside them. Chains are numbered I, II in the order given. Actinocin(9to1) = Cc1c2oc3c(C)ccc(C(=O)[*:1])c3nc-2c(C(=O)[*:2])c(N)c1=O; aThr = C[C@H](O)[C@H](N)C(=O)O; NMeV = CN[C@H](C(=O)O)C(C)C; Sar = CNCC(=O)O

Test system: nude mice, HT29 intrarenal xenograft, tumor weight T/C
Assay: NCI In Vivo Anticancer Drug Screen. Data for tumor model HT29;CX-1 Human Adenocarcinoma (MER+) (intrarenal inoculation) in NU/NU Swiss (nude) mice
Settings: endpoint: mean tumor weight change, higher = larger tumour
Summary of the method: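 Compounds were given to mice carrying transplantable tumors; a vehicle-dosed group served as control. The endpoint measured in each group was compared as a T/C quotient.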

[1] = dose: 150.0 mg/kg/injection, schedule: Q04DX004 (sc), vehicle: saline with Tween-80
[2] = dose: 300.0 mg/kg/injection, schedule: Q04DX004 (sc), vehicle: saline with Tween-80
[3] = dose: 100.0 mg/kg/injection, schedule: Q01DX010 (sc), vehicle: saline
[4] = dose: 50.0 mg/kg/injection, schedule: Q01DX010 (sc), vehicle: saline
[5] = dose: 100.0 mg/kg/injection, schedule: Q01DX010 (sc), vehicle: saline with Tween-80
[6] = dose: 200.0 mg/kg/injection, schedule: Q01DX010 (sc), vehicle: saline with Tween-80

Structure (SMILES): COc1ccc(C(N)=O)cc1N=NN(C)C
- T/C (dose: 18.75 mg/kg/injection, schedule: Q04DX004 (sc), vehicle: Klucel (hydroxypropylcellulose) (HPC)): 100 % of control
- T/C (dose: 37.5 mg/kg/injection, schedule: Q04DX004 (sc), vehicle: Klucel (hydroxypropylcellulose) (HPC)): 31 % of control and 55 % of control
- T/C (dose: 75.0 mg/kg/injection, schedule: Q04DX004 (sc), vehicle: Klucel (hydroxypropylcellulose) (HPC)): 45 % of control and 52 % of control and 70 % of control

Structure (SMILES): O=c1[nH]c(=O)n([C@H]2CCCO2)cc1F
- T/C (dose: 100.0 mg/kg/injection, schedule: Q01DX010 (sc), vehicle: Klucel (hydroxypropylcellulose) (HPC)): 55 % of control
- T/C (dose: 200.0 mg/kg/injection, schedule: Q01DX010 (sc), vehicle: Klucel (hydroxypropylcellulose) (HPC)): 103 % of control

Structure (SMILES): CC(=O)Nc1ccc(O)c(O)c1
- T/C [1]: 257 % of control
- T/C [2]: 56 % of control
- T/C (dose: 600.0 mg/kg/injection, schedule: Q04DX004 (sc), vehicle: saline with Tween-80): 231 % of control
- T/C (dose: 2400.0 mg/kg/injection, schedule: Q04DX004 (sc), vehicle: saline with Tween-80): 110 % of control

Structure (SMILES): CCC12C[N+]3([O-])CCc4c([nH]c5ccccc45)C(C(=O)OC)(c4cc5c(cc4OC)N(C)C4C(O)(C(=O)OC)C(OC(C)=O)C6(CC)C=CCN7CCC54C76)CC(C3)C1O2 (stereo not drawn)
- T/C (dose: 20.0 mg/kg/injection, schedule: Q04DX004 (sc), vehicle: water): 81 % of control
- T/C (dose: 40.0 mg/kg/injection, schedule: Q04DX004 (sc), vehicle: water): 60 % of control
- T/C (dose: 80.0 mg/kg/injection, schedule: Q04DX004 (sc), vehicle: water): 85 % of control
- T/C (dose: 160.0 mg/kg/injection, schedule: Q04DX004 (sc), vehicle: water): 71 % of control

Structure (SMILES): O=c1[nH]c(=O)n(C2CC(O)C(CO)O2)cc1C(F)(F)F (stereo not drawn)
- T/C [3]: 202 % of control
- T/C (dose: 200.0 mg/kg/injection, schedule: Q01DX010 (sc), vehicle: saline): 104 % of control
- T/C (dose: 400.0 mg/kg/injection, schedule: Q01DX010 (sc), vehicle: saline): 73 % of control

Structure (SMILES): CC1(C)CC23C4COC(=O)C2CCC1C3CC4=O (stereo not drawn)
- T/C (dose: 25.0 mg/kg/injection, schedule: Q04DX004 (sc), vehicle: DMSO): 56 % of control
- T/C (dose: 50.0 mg/kg/injection, schedule: Q04DX004 (sc), vehicle: DMSO): 106 % of control
- T/C (dose: 100.0 mg/kg/injection, schedule: Q04DX004 (sc), vehicle: DMSO): 103 % of control
- T/C (dose: 300.0 mg/kg/injection, schedule: Q04DX004 (sc), vehicle: DMSO): 56 % of control
- T/C (dose: 600.0 mg/kg/injection, schedule: Q04DX004 (sc), vehicle: DMSO): 64 % of control
- T/C (dose: 1200.0 mg/kg/injection, schedule: Q04DX004 (sc), vehicle: DMSO): 88 % of control
- T/C (dose: 2400.0 mg/kg/injection, schedule: Q04DX004 (sc), vehicle: DMSO): 114 % of control

Structure (SMILES): CC1CN1P1(N2CC2C)=NP(N2CC2C)(N2CC2C)=NP(N2CC2C)(N2CC2C)=N1 (stereo not drawn)
- T/C [4]: 79 % of control
- T/C [3]: 101 % of control

Structure (SMILES): CC(C)CC(=O)NC(C(=O)NC(C(=O)NC(CC(C)C)C(O)CC(=O)NC(C)C(=O)NC(CC(C)C)C(O)CC(=O)O)C(C)C)C(C)C (stereo not drawn)
- T/C (dose: 150.0 mg/kg/injection, schedule: Q04DX004 (sc), vehicle: Klucel (hydroxypropylcellulose) (HPC)): 102 % of control
- T/C (dose: 300.0 mg/kg/injection, schedule: Q04DX004 (sc), vehicle: Klucel (hydroxypropylcellulose) (HPC)): 87 % of control
- T/C (dose: 600.0 mg/kg/injection, schedule: Q04DX004 (sc), vehicle: Klucel (hydroxypropylcellulose) (HPC)): 69 % of control

Structure (SMILES): Cc1c2oc3c(C)ccc(C(=O)N[C@@H]4C(=O)N[C@H](C(C)C)C(=O)N5CCC[C@H]5C(=O)N(C)CC(=O)N(C)[C@@H](C(C)C)C(=O)O[C@H]4C)c3nc-2c(C(=O)N[C@@H]2C(=O)N[C@H](C(C)C)C(=O)N3CCC[C@H]3C(=O)N(C)CC(=O)N(C)[C@@H](C(C)C)C(=O)O[C@H]2C)c(N)c1=O (I: [aThr][dV]P[Sar][NMeV] / II: [aThr][dV]P[Sar][NMeV]; ester I:1-I:C, II:1-II:C; linker I:N-II:N via Actinocin(9to1))
- T/C (dose: 25.0 micrograms/kg/injection, schedule: Q01DX010 (sc), vehicle: saline): 31 % of control

Structure (SMILES): CC(Cc1ccc(O)c(O)c1)C(C)Cc1ccc(O)c(O)c1 (stereo not drawn)
- T/C (dose: 600.0 mg/kg/injection, schedule: Q04DX004 (sc), vehicle: saline + alcohol): 68 % of control
- T/C (dose: 900.0 mg/kg/injection, schedule: Q04DX004 (sc), vehicle: saline + alcohol): 102 % of control
- T/C (dose: 1800.0 mg/kg/injection, schedule: Q04DX004 (sc), vehicle: saline + alcohol): 97 % of control

Structure (SMILES): Clc1ccc(C(c2ccccc2Cl)C(Cl)Cl)cc1 (stereo not drawn)
- T/C (dose: 1200.0 mg/kg/injection, schedule: Q04DX004 (sc), vehicle: saline): 99 % of control
- T/C (dose: 2400.0 mg/kg/injection, schedule: Q04DX004 (sc), vehicle: saline): 64 % of control
- T/C (dose: 4800.0 mg/kg/injection, schedule: Q04DX004 (sc), vehicle: saline): 77 % of control
- T/C (dose: 9600.0 mg/kg/injection, schedule: Q04DX004 (sc), vehicle: saline): 67 % of control

Structure (SMILES): ClCCCN1CCN(CCCCl)CC1
- T/C (dose: 62.5 mg/kg/injection, schedule: Q04DX004 (sc), vehicle: distilled water + alcohol): 52 % of control
- T/C (dose: 125.0 mg/kg/injection, schedule: Q04DX004 (sc), vehicle: distilled water + alcohol): 17 % of control

Structure (SMILES): CC[C@@H](C)[C@@H]1NC(=O)C(NC(=O)C(CC(C)C)N(C)C(=O)C2CCCN2C(=O)C(C)O)C(C)OC(=O)C(Cc2ccc(OC)cc2)N(C)C(=O)C2CCCN2C(=O)C(CC(C)C)NC(=O)C(C)C(=O)C(C(C)C)OC(=O)C[C@H]1O (stereo partly drawn)
- T/C (dose: 225.0 micrograms/kg/injection, schedule: Q04DX004 (sc), vehicle: distilled water + alcohol): 105 % of control
- T/C (dose: 450.0 micrograms/kg/injection, schedule: Q04DX004 (sc), vehicle: distilled water + alcohol): 106 % of control
- T/C (dose: 900.0 micrograms/kg/injection, schedule: Q04DX004 (sc), vehicle: distilled water + alcohol): 78 % of control
- T/C (dose: 1800.0 micrograms/kg/injection, schedule: Q04DX004 (sc), vehicle: distilled water + alcohol): 29 % of control

Structure (SMILES): C=C(NC(=O)C(=C)NC(=O)c1csc(C2=NC3c4csc(n4)C4NC(=O)c5csc(n5)C(C(C)(O)C(C)O)NC(=O)C5CSC(=N5)/C(=C/C)NC(=O)C(C(C)O)NC(=O)c5csc(n5)C3(CC2)NC(=O)C(C)NC(=O)C(=C)NC(=O)C(=C)NC(=O)C(C(C)C)NC2C=Cc3c(C(C)O)cc(nc3C2O)C(=O)OC4C)n1)C(N)=O (stereo not drawn)
- T/C (dose: 125.0 mg/kg/injection, schedule: Q04DX004 (sc), vehicle: suspension in saline): 789 % of control
- T/C (dose: 250.0 mg/kg/injection, schedule: Q04DX004 (sc), vehicle: suspension in saline): 419 % of control
- T/C (dose: 500.0 mg/kg/injection, schedule: Q04DX004 (sc), vehicle: saline): 59 % of control
- T/C (dose: 750.0 mg/kg/injection, schedule: Q04DX004 (sc), vehicle: saline): 97 % of control
- T/C (dose: 750.0 mg/kg/injection, schedule: Q04DX004 (sc), vehicle: suspension in saline): 73 % of control
- T/C (dose: 1000.0 mg/kg/injection, schedule: Q04DX004 (sc), vehicle: saline): 65 % of control
- T/C (dose: 1250.0 mg/kg/injection, schedule: Q04DX004 (sc), vehicle: saline): 91 % of control
- T/C (dose: 1250.0 mg/kg/injection, schedule: Q04DX004 (sc), vehicle: suspension in saline): 82 % of control

Structure (SMILES): CN=C(N)N/N=C(\C)c1ccc2oc3ccc(/C(C)=N/NC(N)=NC)cc3c2c1
- T/C (dose: 75.0 mg/kg/injection, schedule: Q04DX004 (sc), vehicle: saline with Tween-80): 156 % of control
- T/C [1]: 63 % of control
- T/C [2]: 98 % of control

Structure (SMILES): ClCC[Se](Cl)(Cl)c1ccccc1
- T/C (dose: 12.5 mg/kg/injection, schedule: Q04DX004 (sc), vehicle: saline): 154 % of control
- T/C (dose: 50.0 mg/kg/injection, schedule: Q04DX004 (sc), vehicle: saline): 100 % of control

Structure (SMILES): O=c1n(CC2CO2)c(=O)n(CC2CO2)c(=O)n1CC1CO1 (stereo not drawn)
- T/C (dose: 18.75 mg/kg/injection, schedule: Q04DX004 (sc), vehicle: saline with Tween-80): 42 % of control
- T/C (dose: 25.0 mg/kg/injection, schedule: Q01DX010 (sc), vehicle: saline): 76 % of control
- T/C (dose: 37.5 mg/kg/injection, schedule: Q04DX004 (sc), vehicle: saline with Tween-80): 33 % of control
- T/C [4]: 29 % of control

Structure (SMILES): CC1=C(/C=C/C(C)=C/C=C/C(C)=C/C(=O)O)C(C)(C)CCC1
- T/C (dose: 12.5 mg/kg/injection, schedule: Q01DX010 (sc), vehicle: saline with Tween-80): 153 % of control
- T/C (dose: 25.0 mg/kg/injection, schedule: Q01DX010 (sc), vehicle: saline with Tween-80): 176 % of control
- T/C (dose: 50.0 mg/kg/injection, schedule: Q01DX010 (sc), vehicle: saline with Tween-80): 123 % of control

Structure (SMILES): O=CN(SSN(C=O)C1CCCCC1)C1CCCCC1
- T/C [5]: 36 % of control
- T/C [6]: 178 % of control
- T/C (dose: 400.0 mg/kg/injection, schedule: Q01DX010 (sc), vehicle: saline with Tween-80): 85 % of control
- T/C (dose: 800.0 mg/kg/injection, schedule: Q01DX010 (sc), vehicle: saline with Tween-80): 90 % of control

Structure (SMILES): Cc1ccccc1SSc1ccccc1C
- T/C [5]: 62 % of control
- T/C [6]: 68 % of control
